Test results as given in patent US20160074421A1 (priority 2014, published 2016).

Tests used:
[1] = tested on: epithelial and endothelial tissues; settings: in vivo
PTEN = PTEN (Homo sapiens, UniProt P60484); assay type: biochemical
tight junction = tested on: tight junction; design: species or system BALB/c mice; settings: mouse, in vivo, iv

Sequence of PTEN (P60484 whole entry): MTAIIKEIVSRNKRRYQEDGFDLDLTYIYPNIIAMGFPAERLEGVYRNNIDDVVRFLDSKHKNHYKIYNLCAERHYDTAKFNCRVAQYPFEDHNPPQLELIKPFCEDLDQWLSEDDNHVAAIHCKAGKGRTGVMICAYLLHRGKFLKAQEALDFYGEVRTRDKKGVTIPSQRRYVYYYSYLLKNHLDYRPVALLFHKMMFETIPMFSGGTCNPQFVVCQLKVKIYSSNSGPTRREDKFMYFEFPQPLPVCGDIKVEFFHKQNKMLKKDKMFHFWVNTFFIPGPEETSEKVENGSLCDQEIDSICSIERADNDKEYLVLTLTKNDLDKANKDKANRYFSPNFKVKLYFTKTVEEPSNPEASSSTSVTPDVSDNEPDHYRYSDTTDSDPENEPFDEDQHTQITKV

sodium salt of D-myo-inositol-1,2,6-trisphosphate
progressive deterioration of the structure and function of anatomical structures in epithelial and endothelial tissues [1]: prevented this deterioration
confirmation of the prevention of tissue deterioration ([1]; iv): confirmed

zinc ions
activity of PTEN (PTEN): inhibit the activity of PTEN

1-D-Myo-inositol 1,2,6-triphosphate [alpha trinositol]
effect on tight junction disturbance (tight junction): have a counterbalancing effect
